For data set [1], the target named is cruzain (Trypanosoma cruzi, UniProt P25779). Kind of data set: biochemical. The note with it: for Ki: pH 7.5. As for the experimental part:
All enzyme assays were performed at 25° C. Initial rates of the peptidolytic reaction catalyzed by cruzain were measured by monitoring the fluorescence generated by cleavage of the dipeptide-AMC bond. Assays were conducted in 96-well plates (Greiner; flat-bottom, clear black plates) in a total volume of 250 μL, containing either 50 mM MES (pH 7.5), 50 mM TAPSO, 100 mM DEA, 1 mM CHAPS, 1 mM Na2EDTA, 5 mM DTT, and 10% DMSO (v/v) or 50 mM sodium acetate (pH 5.5), 50 mM MES, 100 mM TEA, 1 mM CHAPS, 1 mM Na2EDTA, 5 mM DTT, and 10% DMSO (v/v). Substrates were dissolved in 100% DMSO and were then diluted 10-fold such that when added to reaction mixtures, final DMSO concentration was 10% (v/v). […] Fluorescence was measured on either a SpectraMax M5 (Molecular Devices) or a Synergy HTX (BioTek, Winooski, VT) microplate reader (λex=360 nm, λem=460 nm). Initial rates were determined from continuous kinetic time courses and calculated from the earliest time points, typically at less than 10 min.
(2) Enzyme and compound were preincubated over extended periods of time, and then aliquots were removed and diluted 50-fold to 100-fold into reaction mixtures containing 10 μM Cbz-Phe-Arg-AMC, followed by the assessment of the resulting time courses.
Data for time-dependent inhibition were fitted by several methods.
Values of kobs versus [inhibitor] were then replotted and fitted to eq 4 for which k3 and k4 represent the respective rates of formation and dissolution of the EI* complex as depicted in FIG. 9.
In addition, time-course data were fitted globally by two methods. First, expressions for vs, vi, and kobs were substituted into eq 3 to generate eq 6, which was used to fit time-course data at all concentrations of inhibitors simultaneously. Second, time-course data were fitted using KinTek Explorer as either a single-binding step model with the two kinetic parameters k3/Ki and k4 or a two-step binding mechanism as shown in FIG. 9 from which rate constants k1-k4 are determined (Supporting Information).
Enzyme Assays. The preparation of cruzain and 3CL^pro were described in previous publications.^8, 34 The evaluation of inhibitors was modified from our lab protocol and described briefly as follows.^35 All enzyme assays were conducted in 96-well, clear bottom, black plates at 25° C., and fluorescence emanating from product formation was measured using either a SpectraMax M5 (Molecular Devices) or a Synergy HTX (Biotek) microplate reader, with excitation at λex=360 nm and emission at λem=460 nm. […] Reactions were started with addition of enzyme (typically, to a final concentration of 0.2 nM for cruzain or 40 nM for 3CL^pro), and the time courses were recorded for 0.5-1 h.
Kinetic Data Analysis. All time-course data were fitted to eq. 1, wherein P is the fluorescence generated by formation of AMC or liberated ACC, C is the background constant, vi and vs are respectively initial-state and steady-state reaction rates, t is time, and kobs is the observed rate of conversion of the initial inhibited rate to the final inhibited rate.^46
Overall inhibition constants (Ki* values) were obtained by fitting vs/v0 to eq. 4, wherein vs and v0 are steady-state reaction rates in the presence and absence of inhibitor respectively, [S] and [I] represent the fixed concentration of substrate and variable inhibitor, Km is the Michaelis constant of the substrate.

Data set [2] can be described thus: Host cell cytotoxicity in the T. cruzi infection model. It is filed as cell-based, mouse. The note with it: mouse; host cardiomyoblasts; read-out: C2C12 Cytotoxicity CC50. As for the experimental part: (§1) The plates were incubated at 37° C. for 48 h, and the wells were fixed with 2% paraformaldehyde in PBS and stained with 5 μg mL-1 4,6-diamidino-2-phenylindole. After at least 30 min of incubation at room temperature in the dark, the plates were read in an automated microscope, ImageXpress Micro XL (Molecular Devices), and the images were analyzed by custom-built software to quantify and assess viability of the parasites, as well as the host cells independently. The compilation of data was used to calculate the antiparasitic activity (EC50) and host cytotoxicity (CC50).
T. cruzi infection was evaluated in C2C12 murine cardiomyoblast cells. […] The wells were fixed with 2% PFA in PBS, and stained by 5 μg/ml of DAPI. After >30 min of incubation in a dark environment, the plates were read on an ImageXpress MicroXL microscope (Molecular Devices). The images were analyzed to quantify parasites as well host cells.

Data set [3] has as its system T. cruzi (Ca-I/72) in C2C12 murine cardiomyoblasts. Kind of data set: T. cruzi-infected murine cardiomyoblasts (C2C12). It is filed as cell-based, Trypanosoma cruzi. As to conditions: read-out: EC50 T. cruzi-infected cardiomyoblasts. As for the experimental part:
as §1, with “For the evaluation of the antitrypanocidal activity of cruzain inhibitors, we infected a C2C12 mouse cardiomyoblast cell line (ATCC CRL-1772) with T. cruzi strain Ca-I/72 (a gift from James Dvorak, National Institutes of Health) in […] plates. […] The plates” for “The plates”
T. cruzi infection was evaluated in C2C12 murine cardiomyoblast cells. 384-microwell plates containing C2C12 murine cardiomyoblast cells were infected with 10^3 and 10^4 cells of T. cruzi (Ca-I/72), to which was added 3-fold serially-dilutions of inhibitor with maximal concentrations of 10 μM, followed by incubation at 37° C. for 2 days. The wells were fixed with 2% PFA in PBS, and stained by 5 μg/ml of DAPI. After >30 min of incubation in a dark environment, the plates were read on an ImageXpress MicroXL microscope (Molecular Devices). The images were analyzed to quantify parasites as well host cells.

Data set [4] can be described thus: Thiolation of inhibitors with glutathione, LCMS. Type of data set: physicochemical. The note with it: 0.5 mM compound, Tris pH 8.0, 10% DMSO. As for the experimental part: Samples were analyzed by HPLC-MS (as described above) by injecting 0.01 mL aliquots onto a Luna […] C18(2) 100 Å, 4.6 mm, 50 mm column (Phenomenex) using the HPLC method described in the chemistry section at 0-6 h time points. […] Integration of the chromatographic peaks of the inhibitors and their GSH adducts at each time point was used to determine the rate of GSH adduct formation.

Data set [5] deals with T. cruzi epimastigotes (strain Y). Kind of data set: Growth of axenic cultures of T. cruzi epimastigotes. As to conditions: for T. cruzi axenic culture EC50: epimastigotes.
Method: Selected cruzain inhibitors in axenic cell cultures of Trypanosoma brucei brucei (procyclic trypomastigotes; ATCC PRA-381) and Trypanosoma cruzi (epimastigote forms; strain Y, ATCC 50832GFP) were tested. T. b. brucei is grown in SDM-79 medium, and T. cruzi is grown in ATCC medium (1029 LIT medium). Both media included fetal calf serum (10%) and penicillin/streptomycin (50 U/mL). […] T. brucei and T. cruzi (5 mL in flask cultures) at 26° C. were seeded at ˜3×10^6 cells, and diluted daily maintaining a mid-log growth phase for up to 100 hrs. Cell counts were scored using a Z2 Coulter Counter. After each cell dilution, fresh compound or an equal volume of DMSO (control samples), was supplemented into the cultures. […] Cruzain inhibitors where the highest concentration reflects the upper limit of solubilities of the inhibitors in 1% (v/v) DMSO solutions were evaluated. These inhibitors are likely to bind to proteins in fetal calf serum, and for these reasons, fresh inhibitors were added each time cells were re-fed.
Selected cruzain inhibitors were evaluated in axenic cell cultures of T. b. brucei and T. cruzi. Procyclic trypomastigotes of T. b. brucei (ATCC PRA-381) were grown in the SDM-79 medium at 26° C., and bloodstream forms (ATCC PRA-383) were grown at 37° C. in the HMI-9 medium at 5% C02. T. cruzi (epimastigote forms, strain Y, ATCC 50832GFP) was grown in the ATCC medium (1029 LIT medium). Both forms of T. b. brucei and T. cruzi were grown in media containing 10% fetal bovine serum (FBS) and penicillin/streptomycin (50 U mL^−1). […] Control samples contained equal amounts of DMSO. T. b. brucei and T. cruzi (5 mL in flask cultures) were seeded at ˜3×10^6 cells and diluted daily, maintaining a mid-log growth phase for up to 120 h. […] After each cell dilution, fresh compound or an equal volume of DMSO (control samples) was supplemented into the cultures, while maintaining a constant concentration of each inhibitor. Cell counts were scored using a Z2 Coulter Counter.
The subject of data set [6] is T. b. brucei procyclic forms. Description: Growth of axenic cultures of T. b. brucei procyclic forms (PCFs). It is filed as cell-based, Trypanosoma brucei brucei. The note with it: for EC50: axenic culture, read-out: EC50 T. b. brucei PCF.
The test system of data set [7] is human dermal fibroblasts. Kind of data set: Human cell toxicity, resazurin viability. It is filed as cell-based. As to conditions: human dermal fibroblasts; read-out: Human Cell Cytotoxicity CC50. As for the experimental part: Primary human dermal fibroblast (HDF) cells were used to evaluate human cell toxicity of cruzain inhibitors. HDF cells were plated in a 384-well plate at 2400 cells per well (62,000 cells mL^−1). Inhibitors in 100% DMSO were added in duplicate to final concentrations of 0.001-0.1 mM and 1% DMSO (v/v) with 1% DMSO as a control sample, and cells were cultured at 37° C. for 48 h, followed by the addition of resazurin. Cell viability was then assessed by reading of fluorescence (excitation/emission: 544 nm/590 nm) after an additional 24 h of incubation.

In data set [8] the target is SARS-CoV-2 3CL protease (Severe acute respiratory syndrome coronavirus 2 (2019-nCoV) (SARS-CoV-2), UniProt P0DTD1). Description: biochemical. The note with it: pH 7.5. Type of data set: biochemical.
Data set [9] addresses human cathepsin L (Homo sapiens (Human), UniProt P07711). Description: Human cathepsin L inhibition, Z-FR-AMC assay. Type of data set: biochemical. As to conditions: pH 5.5, 25° C.; read-out: Ki* hCatL. As for the experimental part:
Recombinant human cathepsins B and L were purchased from Millipore Sigma and used without further treatment. The solid proteins were dissolved into a solution of 50 mM sodium acetate (pH 5.5), 1 mM EDTA, 1 mM CHAPS, 10% (v/v) DMSO, and 5 mM DTT to final concentrations of […] in 20-mL aliquots, and stored at −80° C. until needed. These samples were then diluted into the same buffer to concentrations of −100 nM, and these dilutions were stored at 4° C. and used daily until depletion.
For assays of cathepsin L and B, inhibitors were evaluated in 0.25-mL reaction mixtures containing a buffer of sodium acetate (pH 5.5), 1 mM CHAPS, 1 mM Na2EDTA, and 5 mM DTT at 25° C. The fluorogenic substrate Cbz-Phe-Arg-7-amino-4-methyl-coumarin (Z-FR-AMC) was dissolved in 100% DMSO, as were all inhibitors, and aliquots of both substrates and inhibitors were added to reaction mixtures to final concentrations of DMSO of 10% (v/v). […] Formation of the fluorescent product AMC was monitored over 30-60-minute time courses for reaction mixtures in 96-well black microplates (Corning Costar®). Rates of peptidolysis of the dipeptide-AMC substrate(s) were measured on either a SpectraMax M5 (Molecular Devices) or a Synergy HTX (Biotek, Wisnooki, VT) microplate reader with λex=360 nm, λem=460 nm in ≥8-sec intervals. Control samples excluded substrate. The measured relative fluorescence units (RFUs) of generated AMC were converted to reaction rates of μM/s by use of a standard curve of known AMC concentrations obtained for both plate readers.

In data set [10] the test system is T. b. brucei bloodstream forms. Description: Growth of axenic cultures of T. b. brucei bloodstream forms (BSFs). The note with it: read-out: EC50 T. b. brucei BSF; axenic culture.
Data set [11] concerns SARS-CoV-2 in Vero E6 cells. Description: Anti-CoV-2 activity in Vero E6 cells. It is filed as cell-based.
Setting [12] is: apparent initial inhibition constant, 25° C., read-out: Ki.
Setting [13] is: apparent tight-binding inhibition constant, 25° C., read-out: Ki*.
[14] abbreviates: 1 mM glutathione, room temperature.

Values joined by “and” are separate entries in the source; they are usually repeats but may differ in a detail not shown here. Equal entries are not always repeated. Where two headings read alike, the source gives them in different places. Residues, ends and D or L forms follow the SMILES beside them. *: point of attachment. Cbz = O=C(OCc1ccccc1)*

One may read the CC50 as the concentration at which the toxic effect on the cells reaches its halfway point. For orientation: EC50 means the concentration at which the effect is half-maximal. The term inhibition denotes the share of the control response that was lost under treatment.

Chain of cruzain (P25779 123-467 limits assumed): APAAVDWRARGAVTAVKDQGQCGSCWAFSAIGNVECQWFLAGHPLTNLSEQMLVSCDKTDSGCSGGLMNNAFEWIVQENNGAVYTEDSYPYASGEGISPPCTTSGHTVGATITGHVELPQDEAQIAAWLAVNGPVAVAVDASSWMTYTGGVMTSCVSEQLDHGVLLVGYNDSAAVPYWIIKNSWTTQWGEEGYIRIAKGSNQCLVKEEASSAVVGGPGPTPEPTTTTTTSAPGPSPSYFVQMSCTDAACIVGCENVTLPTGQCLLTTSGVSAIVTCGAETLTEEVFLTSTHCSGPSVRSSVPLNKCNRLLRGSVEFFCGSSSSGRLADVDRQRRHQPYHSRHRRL
Chain of human cathepsin L (P07711 114-333): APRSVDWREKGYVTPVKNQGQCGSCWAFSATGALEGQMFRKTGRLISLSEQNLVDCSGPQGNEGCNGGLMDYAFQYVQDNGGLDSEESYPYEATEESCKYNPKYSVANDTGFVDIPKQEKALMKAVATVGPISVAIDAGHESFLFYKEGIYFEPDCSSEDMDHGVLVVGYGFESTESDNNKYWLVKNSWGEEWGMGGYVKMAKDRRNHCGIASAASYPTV

As for `C[C@@H](/C=C/c1ncccn1)NC(=O)[C@H](Cc1ccccc1)NC(=O)OCc1ccccc1` [Compound 10, Benzyl ((S)-1-Oxo-3-phenyl-1-(((S,E)-4-(pyrimidin-2-yl)but-3-en-2-yl)amino)propan-2-yl)carbamate], the Ki in [1] (setting [12]) was determined as 58000 nM; in data set [1] (apparent tight-binding inhibition constant, 25° C.) it was 280 nM; in data set [1] (setting [13]), 25000 ± 1000 nM. Also, the CC50 at 48 h in [2] is above 10000 nM. Also, the concentration giving a half-maximal response (EC50) in data set [3] (Trypanosoma cruzi, C2C12, C2C12 murine cardiomyoblasts) is 5000 to 8000 nM.
Consider `O=C(N[C@@H](Cc1ccccc1)C(=O)N[C@H](/C=C/c1cc(C(F)(F)F)ccn1)CCc1ccccc1)OCc1ccccc1` [Compound 17, Benzyl ((S)-1-Oxo-3-phenyl-1-(((S,E)-5-phenyl-1-(4-(trifluoromethyl)pyridin-2-yl)pent-1-en-3-yl)amino)propan-2-yl)-carbamate], for which, in data set [4] (5 mM glutathione), the “Rate of Thiolation, k” value was “Negligible”. Also, the “T. cruzi axenic culture EC50” value in [5] is recorded as “poorly effective”. For the same compound, the inhibition at 20 µM in [6] (Trypanosoma brucei, at 20 μM, read-out: inhibition of cell growth) is at most 50%. Besides, the Ki in data set [1] (setting [13]) was 570 ± 50 nM.
For the compound `O=C(N[C@@H](Cc1ccccc1)C(=O)N[C@H](/C=C/c1ncco1)Cc1ccccc1)OCc1ccccc1` [Compound 24, Benzyl ((S)-1-(((S,E)-4-(Oxazol-2-yl)-1-phenylbut-3-en-2-yl)-amino)-1-oxo-3-phenylpropan-2-yl)carbamate], the EC50 in data set [5] (Trypanosoma cruzi, read-out: T. cruzi axenic culture EC50, epimastigotes) is above 20000 nM; in [6] (Trypanosoma brucei), 27000 ± 5000 nM. In [5], the “T. cruzi axenic culture EC50” value is reported as “poorly effective”. Moreover, the Ki stood at 10000 ± 1000 nM in [1] (setting [12]) and 710 ± 10 nM in [1] (setting [13]). Besides, in data set [7], the CC50 is above 100000 nM.
Regarding `O=C(N[C@@H](Cc1ccccc1)C(=O)N[C@H](/C=C/c1nccs1)Cc1ccccc1)OCc1ccccc1` [Compound 25, Benzyl ((S)-1-Oxo-3-phenyl-1-(((S,E)-1-phenyl-4-(thiazol-2-yl)-but-3-en-2-yl)amino)propan-2-yl)carbamate], the “Rate of Thiolation, k” value in [4] (setting [14]) is reported as “Negligible”. For the same compound, the Ki in data set [1] (setting [13]) was 1710 nM.
Turning to `C[n+]1ccsc1/C=C/[C@H](Cc1ccccc1)NC(=O)[C@H](Cc1ccccc1)NC(=O)OCc1ccccc1.[I-]` [Compound 26, 2-((S,E)-3-((S)-2-(((Benzyloxy)carbonyl)amino)-3-phenylpropanamido)-4-phenylbut-1-en-1-yl)-3-methylthiazol-3-ium Iodide], the “Rate of Thiolation, k” value in data set [4] (setting [14]) worked out at 0.25 ± 0.083 M⁻¹ s⁻¹. Besides, the Ki in [1] (setting [13]) is 940 ± 60 nM.
For `O=C[C@H](Cc1ccccc1)NC(=O)[C@H](Cc1ccccc1)NC(=O)OCc1ccccc1` [Compound 28] (Cbz-Phe-Phe-aldehyde), the “Ki* 3CLpro” value in [8] was “not an inhibitor of 3CL protease”. The Ki was above 10000 nM in [8] (read-out: Ki* 3CLpro); 0.31 nM in [9]; 0.44 nM in [1] (obtained >10 minutes following initiation of reaction by addition of enzyme, read-out: Ki* Cruzain). Besides, the EC50 is 8000 nM in [6]; 3000 nM and 3300 nM in data set [10]; 500 nM and 250 nM in data set [3] (C2C12 murine cardiomyoblasts); 500 nM in data set [11]. Besides, the k4 entry in [1] (conversion of EI* back to EI, from kobs replot or recovery after preincubation and dilution) is reported as “(7.6±0.6)×10^−4 s^−1”. The “residence time τ” value in [1] (preincubation, dilution, recovery of cruzain activity) is 52 min.
